Assay results from patent publication US20250230193A1, “CYCLIC COMPOUND HAVING SELECTIVE KRAS INHIBITORY EFFECT ON HRAS AND NRAS” (CHUGAI SEIYAKU KABUSHIKI KAISHA, priority 2022, published 2025).

Legend:
[1] = target: GDP-bound NRAS wild-type protein (Homo sapiens, UniProt P01111); test: Binding to NRAS by surface plasmon resonance (SPR), Single Cycle Kinetics; conditions: KD ratio, GDP-bound NRAS wild-type vs GDP-bound KRAS wild-type, SPR
[2] = target: GDP-bound HRAS wild-type protein (Homo sapiens, UniProt P01112); test: Binding to HRAS by surface plasmon resonance (SPR), Single Cycle Kinetics; conditions: KD ratio, GDP-bound HRAS wild-type vs GDP-bound KRAS wild-type, SPR
GDP-bound HRAS wild-type protein, sequence (P01112 whole entry): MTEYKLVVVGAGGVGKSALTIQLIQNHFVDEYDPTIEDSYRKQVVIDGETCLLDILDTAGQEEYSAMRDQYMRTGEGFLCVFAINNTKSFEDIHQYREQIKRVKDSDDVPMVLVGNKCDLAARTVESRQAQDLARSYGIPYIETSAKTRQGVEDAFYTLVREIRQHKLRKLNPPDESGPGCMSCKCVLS

GDP-bound NRAS wild-type protein, sequence (P01111 whole entry): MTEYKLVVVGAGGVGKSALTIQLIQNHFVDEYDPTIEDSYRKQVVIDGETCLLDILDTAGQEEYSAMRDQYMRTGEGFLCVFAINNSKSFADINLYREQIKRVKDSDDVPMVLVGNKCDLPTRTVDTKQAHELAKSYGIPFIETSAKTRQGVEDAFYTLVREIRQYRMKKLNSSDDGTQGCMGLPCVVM

Compound	NRAS/KRAS (ratio of KD value with respect to NRAS to KD value with respect to KRAS) [1]	HRAS/KRAS (ratio of KD value with respect to HRAS to KD value with respect to KRAS) [2]
CCO[C@@H]1C[C@H]2C(=O)NC3(CCCC3)C(=O)N(C)[C@@H](C3CCCC3)C(=O)N(C)[C@H](C(=O)N(C)C)CC(=O)N(C)[C@@H](CC(C)C)C(=O)N[C@@H]([C@@H](C)CC)C(=O)N(C)CC(=O)N(C)[C@H]3CC(C)=C(C)CN(C3=O)[C@@H](Cc3ccc(C(F)(F)F)cc3)C(=O)N(C)CC(=O)N[C@@H](CCc3cc(F)c(C(F)(F)F)c(F)c3)C(=O)N2C1 [PP1045]	C (A compound having a KD ratio of 0.1 or more and less than 3 is denoted as C)	C (A compound having a KD ratio of 0.1 or more and less than 3 is denoted as C)
CCO[C@@H]1C[C@H]2C(=O)NC3(CCC3)C(=O)N(C)[C@@H](C3CCCC3)C(=O)N(C)[C@H](C(=O)N(C)C)CC(=O)N(C)[C@@H](CC(C)C)C(=O)N[C@@H]([C@@H](C)CC)C(=O)N3CC[C@H]3C(=O)N(C)[C@H]3CC(C)=C(C)CN(C3=O)[C@@H](Cc3ccc(C(F)(F)F)cc3)C(=O)N(C)CC(=O)N[C@@H](CCc3cc(F)c(C(F)(F)F)c(F)c3)C(=O)N2C1 [PP1047]	C (A compound having a KD ratio of 0.1 or more and less than 3 is denoted as C)	C (A compound having a KD ratio of 0.1 or more and less than 3 is denoted as C)
CCO[C@@H]1C[C@H]2C(=O)NC3(CCC3)C(=O)N(C)[C@@H](C3CCCC3)C(=O)N(C)[C@H](C(=O)N(C)C)CC(=O)N(C)[C@@H](CC)C(=O)N[C@@H]([C@@H](C)CC)C(=O)N(C)CC(=O)N(C)[C@H]3CC(C)=C(C)CN(C3=O)[C@@H](Cc3ccc(C(F)(F)F)cc3)C(=O)N(C)CC(=O)N[C@@H](CCc3cc(F)c(C(F)(F)F)c(F)c3)C(=O)N2C1 [PP1048]	C (A compound having a KD ratio of 0.1 or more and less than 3 is denoted as C)	C (A compound having a KD ratio of 0.1 or more and less than 3 is denoted as C)
CCO[C@@H]1C[C@H]2C(=O)NC3(CCC3)C(=O)N(C)[C@@H](C3CCCC3)C(=O)N(C)[C@H](C(=O)N(C)C)CC(=O)N(C)[C@@H](CC)C(=O)N[C@@H]([C@@H](C)CC)C(=O)N3CC[C@H]3C(=O)N(C)[C@H]3CC(C)=C(C)CN(C3=O)[C@@H](Cc3ccc(C(F)(F)F)cc3)C(=O)N(C)CC(=O)N[C@@H](CCc3cc(F)c(C(F)(F)F)c(F)c3)C(=O)N2C1 [PP1049]	C (A compound having a KD ratio of 0.1 or more and less than 3 is denoted as C)	C (A compound having a KD ratio of 0.1 or more and less than 3 is denoted as C)
CCO[C@@H]1C[C@H]2C(=O)NC3(CCCC3)C(=O)N(C)[C@@H](C3CCCC3)C(=O)N(C)[C@H](C(=O)N(C)C)CC(=O)N(C)[C@@H](CC)C(=O)N[C@@H]([C@@H](C)CC)C(=O)N(C)CC(=O)N(C)[C@H]3CC(C)=C(C)CN(C3=O)[C@@H](Cc3ccc(C(F)(F)F)cc3)C(=O)N(C)CC(=O)N[C@@H](CCc3cc(F)c(C(F)(F)F)c(F)c3)C(=O)N2C1 [PP1050]	C (A compound having a KD ratio of 0.1 or more and less than 3 is denoted as C)	C (A compound having a KD ratio of 0.1 or more and less than 3 is denoted as C)
CCO[C@@H]1C[C@H]2C(=O)NC3(CCC3)C(=O)N(C)[C@@H](C3CCCC3)C(=O)N(C)[C@H](C(=O)N(C)C)CC(=O)N(CC)[C@@H](CC(C)C)C(=O)N[C@@H]([C@@H](C)CC)C(=O)N(C)CC(=O)N(C)[C@H]3CC(C)=C(C)CN(C3=O)[C@@H](Cc3ccc(C(F)(F)F)cc3)C(=O)N(C)CC(=O)N[C@@H](CCc3cc(F)c(C(F)(F)F)c(F)c3)C(=O)N2C1 [PP1051]	C (A compound having a KD ratio of 0.1 or more and less than 3 is denoted as C)	C (A compound having a KD ratio of 0.1 or more and less than 3 is denoted as C)
CCO[C@@H]1C[C@H]2C(=O)NC3(CCC3)C(=O)N(C)[C@@H](C3CCCC3)C(=O)N(C)[C@H](C(=O)N(C)C)CC(=O)N(C)[C@@H](CC)C(=O)N[C@@H]([C@@H](C)CC)C(=O)N(CC)CC(=O)N(C)[C@H]3C/C=C\CCN(C3=O)[C@@H](Cc3ccc(C(F)(F)F)cc3)C(=O)N(C)CC(=O)N[C@@H](CCc3cc(F)c(C(F)(F)F)c(F)c3)C(=O)N2C1 [PP1052]	A (a compound having 10 or more and less than 20 is denoted as A)	A (a compound having 10 or more and less than 20 is denoted as A)
CCCN1CC(=O)N(C)[C@H]2C/C=C\CCN(C2=O)[C@@H](Cc2ccc(C(F)(F)F)cc2)C(=O)N(C)CC(=O)N[C@@H](CCc2cc(F)c(C(F)(F)F)c(F)c2)C(=O)N2C[C@H](OCC)C[C@H]2C(=O)NC2(CCC2)C(=O)N(C)[C@@H](C2CCCC2)C(=O)N(C)[C@H](C(=O)N(C)C)CC(=O)N(C)[C@@H](CC)C(=O)N[C@@H]([C@@H](C)CC)C1=O [PP1053]	A (a compound having 10 or more and less than 20 is denoted as A)	A (a compound having 10 or more and less than 20 is denoted as A)
CCO[C@@H]1C[C@H]2C(=O)NC3(CCC3)C(=O)N(C)[C@@H](C3CCCC3)C(=O)N(C)[C@H](C(=O)N(C)C)CC(=O)N(C)[C@@H](CC)C(=O)N[C@@H]([C@@H](C)CC)C(=O)N(C)[C@@H](C)C(=O)N(C)[C@H]3C/C=C\CCN(C3=O)[C@@H](Cc3ccc(C(F)(F)F)cc3)C(=O)N(C)CC(=O)N[C@@H](CCc3cc(F)c(C(F)(F)F)c(F)c3)C(=O)N2C1 [PP1054]	A (a compound having 10 or more and less than 20 is denoted as A)	B (a compound having 3 or more and less than 10 is denoted as B)
CCO[C@@H]1C[C@H]2C(=O)NC3(CCC3)C(=O)N(C)[C@@H](C3CCCC3)C(=O)N(C)[C@H](C(=O)N(C)C)CC(=O)N(C)[C@@H](CC)C(=O)N[C@@H]([C@@H](C)CC)C(=O)N3CCC[C@H]3C(=O)N(C)[C@H]3C/C=C\CCN(C3=O)[C@@H](Cc3ccc(C(F)(F)F)cc3)C(=O)N(C)CC(=O)N[C@@H](CCc3cc(F)c(C(F)(F)F)c(F)c3)C(=O)N2C1 [PP1056]	A (a compound having 10 or more and less than 20 is denoted as A)	A (a compound having 10 or more and less than 20 is denoted as A)
CCO[C@@H]1C[C@H]2C(=O)NC3(CCC3)C(=O)N(C)[C@@H](C3CCCC3)C(=O)N(C)[C@H](C(=O)N(C)C)CC(=O)N(C)[C@@H](CC)C(=O)N[C@@H]([C@@H](C)CC)C(=O)N3C[C@H](OCC)C[C@H]3C(=O)N(C)[C@H]3C/C=C\CCN(C3=O)[C@@H](Cc3ccc(C(F)(F)F)cc3)C(=O)N(C)CC(=O)N[C@@H](CCc3cc(F)c(C(F)(F)F)c(F)c3)C(=O)N2C1 [PP1057]	A (a compound having 10 or more and less than 20 is denoted as A)	B (a compound having 3 or more and less than 10 is denoted as B)
CCO[C@@H]1C[C@H]2C(=O)NC3(CCC3)C(=O)N(C)[C@@H](C3CCCC3)C(=O)N(C)[C@H](C(=O)N(C)C)CC(=O)N(C)[C@@H](CC)C(=O)N[C@@H]([C@@H](C)CC)C(=O)N3CCCC[C@H]3C(=O)N(C)[C@H]3C/C=C\CCN(C3=O)[C@@H](Cc3ccc(C(F)(F)F)cc3)C(=O)N(C)CC(=O)N[C@@H](CCc3cc(F)c(C(F)(F)F)c(F)c3)C(=O)N2C1 [PP1058]	A (a compound having 10 or more and less than 20 is denoted as A)	B (a compound having 3 or more and less than 10 is denoted as B)
CCO[C@@H]1C[C@H]2C(=O)NC3(CCC3)C(=O)N(C)[C@@H](C3CCCC3)C(=O)N(C)[C@H](C(=O)N(C)C)CC(=O)N(C)[C@@H](CC)C(=O)N[C@@H]([C@@H](C)CC)C(=O)N3CCSC[C@H]3C(=O)N(C)[C@H]3C/C=C\CCN(C3=O)[C@@H](Cc3ccc(C(F)(F)F)cc3)C(=O)N(C)CC(=O)N[C@@H](CCc3cc(F)c(C(F)(F)F)c(F)c3)C(=O)N2C1 [PP1060]	A (a compound having 10 or more and less than 20 is denoted as A)	A (a compound having 10 or more and less than 20 is denoted as A)
CCO[C@@H]1C[C@H]2C(=O)NC3(CCC3)C(=O)N(C)[C@@H](C3CCCC3)C(=O)N(C)[C@H](C(=O)N(C)C)CC(=O)N(C)[C@@H](CC)C(=O)N[C@@H]([C@@H](C)CC)C(=O)N3CC[C@@H]3C(=O)N(C)[C@H]3C/C=C\CCN(C3=O)[C@@H](Cc3ccc(C(F)(F)F)cc3)C(=O)N(C)CC(=O)N[C@@H](CCc3cc(F)c(C(F)(F)F)c(F)c3)C(=O)N2C1 [PP1064]	A (a compound having 10 or more and less than 20 is denoted as A)	A (a compound having 10 or more and less than 20 is denoted as A)
CCO[C@@H]1C[C@H]2C(=O)NC3(CCC3)C(=O)N(C)[C@@H](C3CCCC3)C(=O)N(C)[C@H](C(=O)N(C)C)CC(=O)N(C)[C@@H](CC)C(=O)N[C@@H]([C@@H](C)CC)C(=O)N[C@@H](C)C(=O)N(C)[C@H]3C/C=C\CCN(C3=O)[C@@H](Cc3ccc(C(F)(F)F)cc3)C(=O)N(C)CC(=O)N[C@@H](CCc3cc(F)c(C(F)(F)F)c(F)c3)C(=O)N2C1 [PP1065]	A (a compound having 10 or more and less than 20 is denoted as A)	B (a compound having 3 or more and less than 10 is denoted as B)
